Earlier results as cited in patent US6703022B2, “Composition and method useful for treating colic” (Lev Laboratories, Inc., priority 1999, dated 2004).

Tested on: mice
Details: at certain doses

C=CCc1ccc(OC)cc1 [Estragole, 1-allyl-4-methoxybenzene]
mutagenic and carcinogenic effects: mutagenic and carcinogenic effects
